Tests used:
Type in all cases: cell-based
MV-4-11 = assay: Proliferation inhibition (CellTiter-Glo) in MV-4-11 cells; settings: Homo sapiens, MV4-11, 96 h, MV-4-11 AML cells, homozygous FLT3-ITD, IC50 (4 days)
Text: (§1) The Proliferation Inhibitory Effect was Investigated in Human AML Cell Lines MOLM-13 (AddexBio: C0003003) [REF: Pubmed: 9305600] and MV-4-11 (ATCC: CRL-9591) [REF PMID: 3496132], and CML cell line […] (ATCC: CRL-3343) [REF PMID: 163658]. Molm-13 is heterozygous for FLT3-ITD mutation, while MV4-11 is homozygous for FLT3-ITD [PMID: 12529668]. […] Cells were maintained in RPMI-1640 medium (ThermoFisher catalog no. 61870036) supplemented with 10% of Heat Inactivated FBS (ThermoFisher catalog no.A31605) and 1% Pen-Strep (Thermofisher catalog no. 10378016) and cultured at 37° C. in a humidified incubator with 5% CO2. Cell lines were […], and the cells were maintained in a range 70%-80% confluency.
(§2) ATP is present in all metabolically active cells and is considered as a marker for cell viability and proliferation. Metabolic cell activity was determined using the CellTiter-Glo kit (Promega catalog no. G7572), an ATP monitoring system based on the production of luminescence by the reaction of ATP with added UltraGlo® recombinant luciferase (Kawano et al., 2016, PLOS One, 8; 11(7):e0158888), according to the supplier's experimental recommendations. The assay was based on a 96 well plate format.
(§3) Test compounds were dissolved at 10 mM in DMSO (Sigma catalog no. D8418; purity 299.9%) and stored at −20° C. Eight concentrations of test compound were assessed in duplicate in an individual test occasion in parallel in the selected cell lines. Gilteratinib and FF-10101 were used as reference compounds and tested in duplicate at eight concentrations. 100% of proliferation is represented by the untreated cells (0.2% DMSO).
(§4) On the day of the experiment (TO), cells were quantified with the cell viability analyser NucleoCounter (Chemometec NC-200) and diluted with fresh medium to obtain the cell density of about 10,000 cells per 200 μL medium. 200 μL of cell suspension were added into wells in the 96 well plate.
(§5) After 2 hours from seeding cells, compounds were added using a D300e compound dispenser (Life Sciences Tecan D300) at desired concentrations with shaking between each compound dispensed. Cell plates containing 200 μL/well suspension were incubated at 37° C. in a humidified incubator with […].
(§6) […] Contents were mixed for 5 min on an orbital shaker to induce cell lysis, and then incubated at room temperature for an additional 10 min in the dark to stabilize the luminescent signal. Luminescence was read by using a GloMax GM300 plate reader (Promega) using the luminescence for 96 well plate standard protocol.
(§7) Results were analysed by GraphPad (Prism) and IC50 values were calculated by non-linear regression using four parameter-logistic equation.

MOLM-13 = assay: Proliferation inhibition (CellTiter-Glo) in MOLM-13 cells; settings: Homo sapiens, 96 h, MOLM-13 AML cells, heterozygous FLT3-ITD, IC50 (4 days)
Text: as §1, §2, §3, §4, §5, §6, §7

K-562 = assay: Proliferation inhibition (CellTiter-Glo) in K-562 cells; settings: Homo sapiens, K562, 96 h, K-562 CML cells, no FLT3 mutations, IC50 (4 days)
Text: as §1, §2, §3, §4, §5, §6, §7

IC50 (MV-4-11) [nM]	IC50 (MOLM-13) [nM]	IC50 (K-562) [nM]	SMILES
1 to 10	1 to 10	> 500	C=CC(=O)N(C)[C@@H](C)C(=O)NCCNc1cc(Nc2nc(NC3CCOCC3)c(CC)nc2C(N)=O)ccn1 [Compound 40, 6-ethyl-3-[[2-[2-[[(2S)-2-[methyl(prop-2-enoyl)amino]propanoyl]amino]ethylamino]-4-pyridyl]amino]-5-(tetrahydropyran-4-ylamino)pyrazine-2-carboxamide]
10 to 100	10 to 100	> 500	C=CS(=O)(=O)N(C)[C@@H](C)C(=O)NCCNc1cc(Nc2nc(NC3CCOCC3)c(CC)nc2C(N)=O)ccn1 [Compound 41, 6-ethyl-3-[[2-[2-[[(2S)-2-[methyl(vinylsulfonyl)amino]propanoyl]amino]ethylamino]-4-pyridyl]amino]-5-(tetrahydropyran-4-ylamino)pyrazine-2-carboxamide]
10 to 100	10 to 100	> 500	CC#CC(=O)NCCC(=O)NCCc1cc(Nc2nc(NC3CCOCC3)c(CC)nc2C(N)=O)cc(OC)c1 [Compound 101, 3-[3-[2-[3-(but-2-ynoylamino)propanoylamino]ethyl]-5-methoxy-anilino]-6-ethyl-5-(tetrahydropyran-4-ylamino)pyrazine-2-carboxamide]
10 to 100	10 to 100	> 500	C=CC(=O)N1CCC(C(=O)Nc2cccc(Nc3nc(NC4CCOCC4)c(CC)nc3C(N)=O)c2)CC1 [Compound 102, 6-ethyl-3-[3-[(1-prop-2-enoylpiperidine-4-carbonyl)amino]anilino]-5-(tetrahydropyran-4-ylamino)pyrazine-2-carboxamide]
< 1	1 to 10	> 500	CCc1nc(C(N)=O)c(Nc2cc(C#CCNC(=O)[C@H](C)N(C)C(=O)/C=C/CN(C)C)cc(OC)c2)nc1NC1CCOCC1 [Compound 103, 3-[3-[3-[[(2S)-2-[[(E)-4-(dimethylamino)but-2-enoyl]-methyl-amino]propanoyl]amino]prop-1-ynyl]-5-methoxy-anilino]-6-ethyl-5-(tetrahydropyran-4-ylamino)pyrazine-2-carboxamide]
1 to 10	1 to 10	> 500	CC#CC(=O)N(C)[C@@H](C)C(=O)NCCOc1cccc(Nc2nc(NC3CCOCC3)c(CC)nc2C(N)=O)c1 [Compound 104, 3-[3-[2-[[(2S)-2-[but-2-ynoyl(methyl)amino]propanoyl]amino]ethoxy]anilino]-6-ethyl-5-(tetrahydropyran-4-ylamino)pyrazine-2-carboxamide]
1 to 10	10 to 100	> 500	C=CC(=O)N1CC(CC(=O)Nc2cccc(Nc3nc(NC4CCOCC4)c(CC)nc3C(N)=O)c2)C1 [Compound 105, 6-ethyl-3-[3-[[2-(1-prop-2-enoylazetidin-3-yl)acetyl]amino]anilino]-5-(tetrahydropyran-4-ylamino)pyrazine-2-carboxamide]
10 to 100	10 to 100	> 500	C=CC(=O)NCCN1CCc2ccc(Nc3nc(NC4CCOCC4)c(CC)nc3C(N)=O)cc2C1=O [Compound 106]
1 to 10	1 to 10	> 500	C=CC(=O)N(C)[C@@H](C)C(=O)NCC#Cc1cc(Nc2nc(NC3CCOCC3)c(CC)nc2C(N)=O)cc(OC)c1 [Compound 107, 6-ethyl-3-[3-methoxy-5-[3-[[(2S)-2-[methyl(prop-2-enoyl)amino]propanoyl]amino]prop-1-ynyl]anilino]-5-(tetrahydropyran-4-ylamino)pyrazine-2-carboxamide]
1 to 10	1 to 10	> 500	CC#CC(=O)N(C)[C@@H](C)C(=O)NCC#Cc1cc(Nc2nc(NC3CCOCC3)c(CC)nc2C(N)=O)cc(OC)c1 [Compound 108, 3-[3-[3-[[(2S)-2-[but-2-ynoyl(methyl)amino]propanoyl]amino]prop-1-ynyl]-5-methoxy-anilino]-6-ethyl-5-(tetrahydropyran-4-ylamino)pyrazine-2-carboxamide]
1 to 10	1 to 10	> 500	C=CC(=O)N(C)[C@@H](C)C(=O)NCCc1cc(Nc2nc(NC3CCOCC3)c(CC)nc2C(N)=O)cc(OC)c1 [Compound 109, 6-ethyl-3-[3-methoxy-5-[2-[[(2S)-2-[methyl(prop-2-enoyl)amino]propanoyl]amino]ethyl]anilino]-5-(tetrahydropyran-4-ylamino)pyrazine-2-carboxamide]
< 1	1 to 10	> 500	CCc1nc(C(N)=O)c(Nc2cc(CCNC(=O)[C@H](C)N(C)C(=O)/C=C/CN(C)C)cc(OC)c2)nc1NC1CCOCC1 [Compound 110, 3-[3-[2-[[(2S)-2-[[(E)-4-(dimethylamino)but-2-enoyl]-methyl-amino]propanoyl]amino]ethyl]-5-methoxy-anilino]-6-ethyl-5-(tetrahydropyran-4-ylamino)pyrazine-2-carboxamide]
1 to 10	10 to 100	> 500	CC#CC(=O)N(C)[C@@H](C)C(=O)NCCc1cc(Nc2nc(NC3CCOCC3)c(CC)nc2C(N)=O)cc(OC)c1 [Compound 111, 3-[3-[2-[[(2S)-2-[but-2-ynoyl(methyl)amino]propanoyl]amino]ethyl]-5-methoxy-anilino]-6-ethyl-5-(tetrahydropyran-4-ylamino)pyrazine-2-carboxamide]
100 to 500	100 to 500	> 500	C=CC(=O)N1CCC(C(=O)Nc2cccc(Nc3nc(NC4CCOCC4)c(CC)nc3C(N)=O)c2)C1 (stereo not drawn) [Compound 112, 6-ethyl-3-[3-[(1-prop-2-enoylpyrrolidine-3-carbonyl)amino]anilino]-5-(tetrahydropyran-4-ylamino)pyrazine-2-carboxamide]
< 1	1 to 10	> 500	C=CC(=O)N(C)[C@@H](C)C(=O)NCC#Cc1cc(Nc2nc(NC3CCOCC3)c(CC)nc2C(N)=O)ccc1OC [Compound 113, 6-ethyl-3-[4-methoxy-3-[3-[[(2S)-2-[methyl(prop-2-enoyl)amino]propanoyl]amino]prop-1-ynyl]anilino]-5-(tetrahydropyran-4-ylamino)pyrazine-2-carboxamide]
1 to 10	10 to 100	> 500	CC#CC(=O)N(C)[C@@H](C)C(=O)NCCCOc1cccc(Nc2nc(NC3CCOCC3)c(CC)nc2C(N)=O)c1 [Compound 114, 3-[3-[3-[[(2S)-2-[but-2-ynoyl(methyl)amino]propanoyl]amino]propoxy]anilino]-6-ethyl-5-(tetrahydropyran-4-ylamino)pyrazine-2-carboxamide]
< 1	1 to 10	> 500	CCc1nc(C(N)=O)c(Nc2cccc(OC(C)CCNC(=O)[C@H](C)N(C)C(=O)/C=C/CN(C)C)c2)nc1NC1CCOCC1 (stereo partly drawn) [Compound 115, 3-[3-[3-[[(2S)-2-[[(E)-4-(dimethylamino)but-2-enoyl]-methyl-amino]propanoyl]amino]-1-methyl-propoxy]anilino]-6-ethyl-5-(tetrahydropyran-4-ylamino)pyrazine-2-carboxamide]
< 1	1 to 10	> 500	CCc1nc(C(N)=O)c(Nc2cccc(OC(C)CNC(=O)[C@H](C)N(C)C(=O)/C=C/CN(C)C)c2)nc1NC1CCOCC1 (stereo partly drawn) [Compound 115A, 3-[3-[2-[[(2S)-2-[[(E)-4-(dimethylamino)but-2-enoyl]-methyl-amino]propanoyl]amino]-1-methyl-ethoxy]anilino]-6-ethyl-5-(tetrahydropyran-4-ylamino)pyrazine-2-carboxamide]
< 1	< 1	> 500	CCc1nc(C(N)=O)c(Nc2cccc(OCCCNC(=O)[C@H](C)N(C)C(=O)/C=C/CN(C)C)c2)nc1N(C)C1CCOCC1 [Compound 116, (S,E)-3-((3-(3-(2-(4-(dimethylamino)-N-methylbut-2-enamido)propanamido)propoxy)phenyl)amino)-6-ethyl-5-(methyl(tetrahydro-2H-pyran-4-yl)amino)pyrazine-2-carboxamide]

— patent US20250136558A1, “PYRAZINE COMPOUNDS AS IRREVERSIBLE INHIBITORS OF FLT3” (BIOMEA FUSION, INC., priority 2021, published 2025)
